Source: US20230355713A1, “PEPTIDE FOR THERAPEUTIC APPLICATIONS IN THE DERMATOLOGICAL FIELD” (Dompe' Farmaceutici S.P.A., priority 2020, published 2023)
Where no end group is shown, it is not given here.

Legend:
[1] = tested on: Sprague-Dawley rats; assay: In vivo tolerability test: plantar thermal hyperalgesia test (Hargreaves apparatus), paw retraction latency; settings: for hyperalgesic activity compared to the saline group (paw retraction latency): 1, 3, 5 and 24 h after injection, P<0.001
Experimental: The in vivo intra-implant tolerability of the NGF 1-14 peptide was evaluated in comparison with the whole protein NGF.
Tyrode's isotonic solution containing the rh-NGF protein in concentrations from 5 to 20 μg/mL and the vehicle was administered intra-implantally in the dorsal region of Sprague-Dawley rats (10 animals for each concentration), in a volume of 0.05 mL using a very fine syringe.
Tyrode's isotonic solution containing the murine-NGF protein in concentrations from 5 to 20 μg/mL and the vehicle was administered intra-implantally in the dorsal region of Sprague-Dawley rats (10 animals for each concentration), in a volume of 0.05 mL using a very fine syringe.
Tyrode's isotonic solution containing the NGF 1-14 peptide in concentrations from 5 to 20 μg/mL and the vehicle was administered intra-implantally in the dorsal region of Sprague-Dawley rats (10 animals for each concentration), in a volume of 0.05 mL using a very fine syringe.
The solution was administered intra-implantally in the dorsal region of Sprague-Dawley rats (10 animals for each concentration), in a volume of 0.05 mL using a very fine syringe.
After the intra-implant injections, the Plantar thermal hyperalgesia test was conducted. In particular: after 1, 3, 5 and 24 h the thermal sensitivity was determined using the Hargreaves apparatus (HA).
Hypersensitivity to heat was assessed using the rat plantar test apparatus (Ugo Basile, Italy) following the method described by Hargreaves et al. (1988). The plantar test uses three perspex boxes (22×19×25 cm) placed on an elevated glass table. The rats were housed in each box, so that 3 rats could be tested simultaneously in a single apparatus and allowed to acclimate for at least 10 minutes. A mobile infrared heat source was applied to the plantar surface of the hind legs.
Paw retraction latency was defined as the time (in seconds) it took the rat to remove the hind leg from the heat source. The heat source was calibrated to an intensity of 15 IR and a cut-off of 50 sec was applied to prevent tissue damage. The test was performed at 1, 3, 5 and 24 hours after the injection. Each paw was tested twice per session (raw data represents the average of 2 measurements performed at an interval of approximately 5 minutes).

[2] = tested on: primary cell cultures of normal human melanocytes; assay: In vitro melanin production by melanocytes (melanin content by ELISA); format: cell-based; settings: concentration at which 50% of the maximum concentration of cellular melanin is observed; cultured for one week
Experimental: The in vitro ability of the NGF 1-14 peptide and the NGF whole protein to activate melanin production by melanocytes was compared.
According to already established protocols, primary cell cultures of normal human melanocytes were seeded in Petri dishes and cultured for one week, with and without the presence of the NGF 1-14 peptide at various concentrations, using the whole human NGF protein as a control. The melanin content was measured with the ELISA enzyme immunoassay. The maximum melanin concentration, measured as the difference from baseline, was experimentally determined from the plateau of the dose response curves of NGF and NGF 1-14. The EC50 represents the concentration of NGF 1-14 or NGF at which 50% of the maximum concentration of cellular melanin is observed.

[3] = tested on: sensory nerve fibers; assay: Histological test: density of sensory nerve fibers in skin biopsies (NF200, TRPV1 antibodies); format: in vivo, SCF transgenic mice of the C57BL6 line; settings: 200 μg/mL in base cream, after the 8-week treatment of example 2a
Source text: The in vivo ability of the NGF 1-14 peptide and the NGF whole protein to increase the density of nerve endings was compared.
After the treatment described in example 2a, the animals were sacrificed and skin samples (3 biopsies per point) were taken both from the area treated with NGF1-14 or with NGF, and from the untreated area, for each animal, for the purpose of histological examination.
To evaluate the density of sensory nerve fibers, antibodies directed against the neurofilament protein 200 (NF200; Sigma) specific for large diameter fibers, and antibodies directed against the transient receptor potential vanilloid 1 (TRPV1, Neuromics) were used to measure peripheral sensory fibers (small diameter).

[4] = tested on: mouse model of human vitiligo; assay: In vivo efficacy test: skin re-pigmentation, depigmentation score 0 to 5; parameters: species or system SCF transgenic mice of the C57BL6 line; settings: 200 μg/mL in base cream, topical, twice a day for 8 weeks; 0 to 5 point scale
Experimental: The in vivo capacity of skin re-pigmentation by the NGF 1-14 peptide and the whole NGF protein was compared.
The study was conducted on a mouse model of human vitiligo.
SCF transgenic mice of the C57BL6 line, treated for 10-12 weeks to induce vitiligo using CD8+T cells specific for melanocytes, were shaved twice a week in the dorsal part affected by depigmentation, with an electric razor, in an area of about 6 cm×6 cm. The animals were divided into two groups of equal numbers (8 animals per group). On a first group of animals, topical administration was carried out in two sites of the shaved area spaced from both sides of the midline, applying on the left a topical preparation containing 200 μg/mL of NGF peptide in a base cream vehicle, while on the right side only the base cream (control) was applied. The same procedure was repeated on the second group of animals, applying on the left a topical preparation containing 200 μg/mL of NGF 1-14 peptide in a base cream vehicle, while on the right side only the base cream (control) was applied.
The application was spread evenly twice a day for 8 weeks, in the central part of the shaved area, on a surface of about 2 cm×2 cm. Starting from the second day and thereafter, the areas of interest were cleaned with a cloth before applying the preparations. The animals were kept away from possible sources of ultraviolet light irradiation.
Quantification of epidermal depigmentation was performed using a subjective scoring system based on a 0 to 5 point scale, where 5 represents the most severe degree of depigmentation, reported in the literature (Rebecca L. et al., Curr Protoc Immunol. (2019), 124(1)—February). A trained researcher blinded to the details of the experiment performed the evaluation at the treated site.

Row | Substance | hyperalgesic activity compared to the saline group (paw retraction latency) ([1]; 10 μg/50 μL) | hyperalgesic activity compared to the saline group (paw retraction latency) ([1]; 20 μg/50 μL) | EC50 [2] [nM] | Nerve endings density (mm/mm^3) NF200 ([3]; large diameter fibers) | Nerve termination density unit of measurement (mm/mm^3) TRPV1 ([3]; small diameter peripheral sensory fibers) | percentage of animals with a degree of depigmentation less than or equal to 2 [4] [%] | percentage of animals with a moderate degree of depigmentation equal to 3 [4] [%] | percentage of animals with a severe degree of depigmentation greater than or equal to 4 [4] [%] | hyperalgesic effect compared with NGF 1-14 at 10 and 20 μg/50 μL ([1]; 10 μg/50 μL, P<0.05 at 1-3-24 h and P<0.01 at 5 h)
1 | SSSHPIFHRGEFSV [NGF 1-14, SSSHPIFHRGEFSV] | showed hyperalgesic activity | showed hyperalgesic activity | 1200 |  |  |  |  |  | 
2 | NGF: Nerve growth factor, whole human NGF protein used as a control |  |  | 0.06 | 350 + 50 mm/mm^3 | 200 + 36 mm/mm^3 | 37.5 | 37.5 | 25 | 
3 | rh-NGF: rh-NGF protein, whole protein NGF comparator in the tolerability test | showed hyperalgesic activity |  |  |  |  |  |  |  | more pronounced significant hyperalgesic effect
